{"source": "patent US12630565B2", "about": "“DNA-dependent protein kinase inhibitor” (DIZAL (JIANGSU) PHARMACEUTICAL CO., LTD., priority 2019, dated 2026)", "key": {"[1]": {"test_system": "MDR1, BCRP", "assay": "MDCKII-MDR1-BCRP efflux assay", "type": "in vitro ADME", "settings": "dog, pH 7.4, 5 μM compound, HBSS pH 7.4, read-out: MDCK-Mdr1-BCRP efflux ratio", "description": "The apical-to-basolateral (A-B) and basolateral-to-apical (B-A) transport of compound in HBSS (25 mM HEPES, pH 7.4) was measured across MDCKII-MDR1-BCRP cell monolayers. Incubations were performed at approximately 37° C. for 120 min, with functionality of the test system being confirmed using 5 μM digoxin as a positive control substrate. Transport of 5 μM compound and control compound were determined by quantifying substrate concentration in the incubation medium of donor compartment at the beginning of the incubation period, and both donor and receiver compartments at the end of the incubation period. The data was used to calculate the apparent permeability (Papp). All incubations were performed in triplicate and integrity of the cell monolayers was confirmed using the marker Lucifer yellow.\nThe permeability coefficient Pexact (cm/s) was calculated using the equation: […]\nThe Pexact ratio was calculated using the equation: […]\nThe efflux ratio was calculated using the equation: […]\nWhere dCr/dt is the cumulative concentration of compound in the receiver chamber as a function of time (μM/s); Vr is the solution volume in the receiver chamber (0.1 mL on the apical side, 0.3 mL on the basolateral side); A is the surface area for the transport, i.e. 0.11 cm2 for the area of the monolayer; CO is the initial concentration in the donor chamber (μM)."}, "[2]": {"biological_target": "Full length human DNAPK protein (Homo sapiens, UniProt P78527)", "assay": "DNA-PK enzymatic assay (TR-FRET)", "type": "biochemical", "settings": "10 μM ATP, 1.6 μM peptide substrate"}, "[3]": {"assay": "Metabolic stability assay (human microsomal Clint)", "type": "in vitro ADME", "settings": "human, pooled human liver microsomes, pH 7.4, 1 μM compound, 1 mg/mL microsomes, 1 mM NADPH, 37° C.", "description": "1 μM compound was incubated with 1 mg/mL of microsomes (Pooled HLM with 20 mg/ml protein cone) at 37° C. in 250 μL of buffer (100 mM phosphate buffer, pH-7.4) containing 1 mM NADPH solution. 20 μL of incubation mix was quenched with 5 volumes chilled acetonitrile at different time points 0, 0.5, 5, 10, 15, 20 and 30 min in a fresh 96 well plate. The quench plate was centrifuged at 4000 rpm for 15 min. 40 μL of supernatant was diluted to 200 μL with pure water and analyzed using LC-MS/MS.\nIn vitro intrinsic clearance of the drugs in the microsome CLint (μl/min/mg) was calculated in the similar manner as the CLint in the hepatocyte."}, "[4]": {"test_system": "Rat hepatocyte", "assay": "Metabolic stability assay (rat hepatocyte Clint)", "type": "in vitro ADME", "settings": "1 μM compound, cryopreserved hepatocytes 1 million cells per mL", "description": "Viability of cryopreserved hepatocytes was determined using trypan blue and the cell conc. was adjusted to […] with buffer. 1 μM compound (in Acetonitrile; 0.01% DMSO) was incubated with 250 μL of hepatocytecells (1 million cells per mL) in a 96 deep well plate. Reaction was stopped at different time points (0, 0.5, 5, 15, 30, 45, 60, 80, 100 and 120 min) by addition of 3 volumes of chilled acetonitrile to 20 μL of reaction mixture and centrifuged at 4° C. for 15 min. 40 μL of supernatant was diluted to 200 μL with pure water and analyzed using LC-MS/MS.\nIn vitro hepatocyte clearance was estimated based on determination of elimination half-life (T1/2) of compounds disappearance from their initial concentrations. Peak area ratios of each compound (test or control) to IS was calculated. Drug elimination rate constant k (min−1), T1/2 (min), and in vitro intrinsic clearance CLint (μL/min/E6) was calculated according to the following equations: […]\nWhere Chep (cells×μL^−1) is the cell concentration in the incubation system."}}, "data": [{"smiles": "Cc1cc2ncnn2cc1Nc1ncc2c(n1)c(C1CCC(F)(F)CC1)nn2C", "note": "[Example 9, 3-(4,4-difluorocyclohexyl)-1-methyl-N-(7-methyl-[1,2,4]triazolo[1,5-a]pyridin-6-yl)-1H-pyrazolo[4,3-d]pyrimidin-5-amine]", "values": [{"measurement": "efflux ratio at 120 min, 5 μM", "setting": "[1]", "value": 1.3}, {"measurement": "IC50", "setting": "[2]", "value": 0.7, "unit": "nM"}, {"measurement": "microsomal CLint at 1 μM", "setting": "[3]", "value": 135, "unit": "µL/min/mg"}, {"measurement": "Rat hepatocyte CLint (μl/min/10^−6 cells)", "setting": "[4]", "value": 11.3, "unit": "μl/min/10^−6 cells"}]}, {"smiles": "Cc1cc2ncnn2cc1Nc1ncc2c(C)nn(C3CCOC(C)(C)C3)c2n1", "note": "(single isomer, unassigned) [Example 116, 1-(2,2-dimethyltetrahydro-2H-pyran-4-yl)-3-methyl-N-(7-methyl-[1,2,4]triazolo[1,5-a]pyridin-6-yl)-1H-pyrazolo[3,4-d]pyrimidin-6-amine]", "values": [{"measurement": "efflux ratio at 120 min, 5 μM", "setting": "[1]", "value": 2}, {"measurement": "IC50", "setting": "[2]", "value": 1.6, "unit": "nM"}, {"measurement": "microsomal CLint at 1 μM", "setting": "[3]", "value": 71.1, "unit": "µL/min/mg"}, {"measurement": "Rat hepatocyte CLint (μl/min/10^−6 cells)", "setting": "[4]", "value": 9.6, "unit": "μl/min/10^−6 cells"}]}, {"smiles": "Cc1cc2ncnn2cc1Nc1ncc2c(C)nn(C3CC4(COC4)C3)c2n1", "note": "[Example 42, 3-methyl-N-(7-methyl-[1,2,4]triazolo[1,5-a]pyridin-6-yl)-1-(2-oxaspiro[3.3]heptan-6-yl)-1H-pyrazolo[3,4-d]pyrimidin-6-amine]", "values": [{"measurement": "efflux ratio at 120 min, 5 μM", "setting": "[1]", "value": 4.8}, {"measurement": "IC50", "setting": "[2]", "value": 7.5, "unit": "nM"}, {"measurement": "microsomal CLint at 1 μM", "setting": "[3]", "value": 19.5, "unit": "µL/min/mg"}, {"measurement": "Rat hepatocyte CLint (μl/min/10^−6 cells)", "setting": "[4]", "value": 34.2, "unit": "μl/min/10^−6 cells"}]}, {"smiles": "Cc1cc2ncnn2cc1Nc1ncc2c(C)nn(CC3CC3)c2n1", "note": "[Example 38, 1-(cyclopropylmethyl)-3-methyl-N-(7-methyl-[1,2,4]triazolo[1,5-a]pyridin-6-yl)-1H-pyrazolo[3,4-d]pyrimidin-6-amine]", "values": [{"measurement": "efflux ratio at 120 min, 5 μM", "setting": "[1]", "value": 1.4}, {"measurement": "IC50", "setting": "[2]", "value": 11.1, "unit": "nM"}, {"measurement": "microsomal CLint at 1 μM", "setting": "[3]", "value": 34.2, "unit": "µL/min/mg"}, {"measurement": "Rat hepatocyte CLint (μl/min/10^−6 cells)", "setting": "[4]", "value": 15.3, "unit": "μl/min/10^−6 cells"}]}, {"smiles": "CO[C@H]1CC[C@H](n2nc(C)c3cnc(Nc4cn5ccnc5cc4C)nc32)CC1", "note": "[Example 26, 1-((1r,4r)-4-methoxycyclohexyl)-3-methyl-N-(7-methylimidazo[1,2-a]pyridin-6-yl)-1H-pyrazolo[3,4-d]pyrimidin-6-amine]", "values": [{"measurement": "efflux ratio at 120 min, 5 μM", "setting": "[1]", "value": 4.2}, {"measurement": "IC50", "setting": "[2]", "value": 3, "unit": "nM"}, {"measurement": "microsomal CLint at 1 μM", "setting": "[3]", "value": 134, "unit": "µL/min/mg"}, {"measurement": "Rat hepatocyte CLint (μl/min/10^−6 cells)", "setting": "[4]", "value": 13.6, "unit": "μl/min/10^−6 cells"}]}, {"smiles": "Cc1cc2ncnn2cc1Nc1ncc2c(n1)c(C1CCCCC1)nn2C", "note": "[Example 5, 3-cyclohexyl-1-methyl-N-(7-methyl-[1,2,4]triazolo[1,5-a]pyridin-6-yl)-1H-pyrazolo[4,3-d]pyrimidin-5-amine]", "values": [{"measurement": "efflux ratio at 120 min, 5 μM", "setting": "[1]", "value": 0.8}, {"measurement": "IC50", "setting": "[2]", "value": 0.4, "unit": "nM"}, {"measurement": "microsomal CLint at 1 μM", "setting": "[3]", "value": 135, "unit": "µL/min/mg"}, {"measurement": "Rat hepatocyte CLint (μl/min/10^−6 cells)", "setting": "[4]", "value": 22.8, "unit": "μl/min/10^−6 cells"}]}, {"smiles": "Cc1cc2ncnn2cc1Nc1ncc2c(C)nn([C@H]3CC[C@H](O)CC3)c2n1", "note": "[Example 31, (1r,4r)-4-(3-methyl-6-((7-methyl-[1,2,4]triazolo[1,5-a]pyridin-6-yl)amino)-1H-pyrazolo[3,4-d]pyrimidin-1-yl)cyclohexan-1-ol]", "values": [{"measurement": "efflux ratio at 120 min, 5 μM", "setting": "[1]", "value": 31.2}, {"measurement": "IC50", "setting": "[2]", "value": 1.8, "unit": "nM"}, {"measurement": "microsomal CLint at 1 μM", "setting": "[3]", "value": 6.6, "unit": "µL/min/mg"}, {"measurement": "Rat hepatocyte CLint (μl/min/10^−6 cells)", "setting": "[4]", "value": 12.4, "unit": "μl/min/10^−6 cells"}]}, {"smiles": "Cc1cc2ncnn2cc1Nc1ncc2c(C)nn(C3CCCOC3)c2n1", "note": "(single isomer, unassigned) [Example 29, 3-methyl-N-(7-methyl-[1,2,4]triazolo[1,5-a]pyridin-6-yl)-1-(tetrahydro-2H-pyran-3-yl)-1H-pyrazolo[3,4-d]pyrimidin-6-amine]", "values": [{"measurement": "efflux ratio at 120 min, 5 μM", "setting": "[1]", "value": 1.6}, {"measurement": "IC50", "setting": "[2]", "value": 2, "unit": "nM"}, {"measurement": "microsomal CLint at 1 μM", "setting": "[3]", "value": 24.5, "unit": "µL/min/mg"}, {"measurement": "Rat hepatocyte CLint (μl/min/10^−6 cells)", "setting": "[4]", "value": 13.3, "unit": "μl/min/10^−6 cells"}]}, {"smiles": "Cc1cc2nccn2cc1Nc1ncc2c(n1)c(C1=CCOCC1)nn2C", "note": "[Example 6, 3-(3,6-dihydro-2H-pyran-4-yl)-1-methyl-N-(7-methylimidazo[1,2-a]pyridin-6-yl)-1H-pyrazolo[4,3-d]pyrimidin-5-amine]", "values": [{"measurement": "efflux ratio at 120 min, 5 μM", "setting": "[1]", "value": 4.9}, {"measurement": "IC50", "setting": "[2]", "value": 1.6, "unit": "nM"}, {"measurement": "microsomal CLint at 1 μM", "setting": "[3]", "value": 35.5, "unit": "µL/min/mg"}, {"measurement": "Rat hepatocyte CLint (μl/min/10^−6 cells)", "setting": "[4]", "value": 6.8, "unit": "μl/min/10^−6 cells"}]}]}
